The target of assay [1] is Cathepsin B (Homo sapiens, UniProt P07858). Briefly: In vitro Inhibitory activity against Cathepsin B cysteine protease by using Cbz-Phe-Arg-AMC.
Assay [2] addresses Cathepsin S (Homo sapiens, UniProt P25774). Description: In vitro Inhibitory activity against Cathepsin S cysteine protease by using Cbz-Val-Val-Arg-AMC.
Assay [3] addresses T1, Cathepsin K (Homo sapiens, UniProt P43235).
T1 sequence (P43235 whole entry): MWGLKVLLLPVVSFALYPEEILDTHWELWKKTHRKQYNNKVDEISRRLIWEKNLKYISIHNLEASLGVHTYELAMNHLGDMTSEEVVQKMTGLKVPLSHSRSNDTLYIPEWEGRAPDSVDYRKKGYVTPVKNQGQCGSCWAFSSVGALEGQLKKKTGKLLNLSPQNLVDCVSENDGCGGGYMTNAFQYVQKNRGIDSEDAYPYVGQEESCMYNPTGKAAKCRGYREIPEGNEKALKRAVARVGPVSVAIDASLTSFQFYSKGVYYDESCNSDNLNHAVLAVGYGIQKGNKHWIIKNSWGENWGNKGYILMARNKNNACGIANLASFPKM
Description: In vitro Inhibitory activity against Cathepsin K cysteine protease by using Cbz-Phe-Arg-AMC.

Assay [4] addresses T2, Procathepsin L (Rattus norvegicus, UniProt P07154).
T2 sequence (P07154 whole entry): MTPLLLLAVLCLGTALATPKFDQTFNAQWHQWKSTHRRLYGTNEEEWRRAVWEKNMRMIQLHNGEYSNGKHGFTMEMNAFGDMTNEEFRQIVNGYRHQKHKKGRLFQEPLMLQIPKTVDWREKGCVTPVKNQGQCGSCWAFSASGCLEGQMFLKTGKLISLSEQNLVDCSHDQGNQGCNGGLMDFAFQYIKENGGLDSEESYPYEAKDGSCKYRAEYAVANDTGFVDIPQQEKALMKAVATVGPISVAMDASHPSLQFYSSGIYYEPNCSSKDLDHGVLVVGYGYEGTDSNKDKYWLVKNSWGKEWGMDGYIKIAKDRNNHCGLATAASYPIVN
Description: In vitro Inhibitory activity against Cathepsin L cysteine protease by using Cbz-Phe-Arg-AMC.

We go through five compounds from ChEMBL document CHEMBL1134985, “Design and synthesis of 6-substituted amino-4-oxa-1-azabicyclo[3,2,0]heptan-7-one derivatives as cysteine proteases inhibitors” (Bioorg Med Chem Lett, 2002).

Structures are written as SMILES.

Sequence of Cathepsin S (P25774 whole entry): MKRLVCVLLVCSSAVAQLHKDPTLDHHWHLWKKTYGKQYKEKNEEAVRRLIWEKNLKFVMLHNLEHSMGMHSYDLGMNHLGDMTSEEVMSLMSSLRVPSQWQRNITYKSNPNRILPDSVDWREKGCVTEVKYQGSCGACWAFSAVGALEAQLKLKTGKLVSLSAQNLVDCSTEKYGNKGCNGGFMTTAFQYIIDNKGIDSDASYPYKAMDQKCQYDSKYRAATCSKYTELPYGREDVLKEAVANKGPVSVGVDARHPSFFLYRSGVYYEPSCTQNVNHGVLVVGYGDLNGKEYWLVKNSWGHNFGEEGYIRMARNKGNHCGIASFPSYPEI

As for `O=C(N[C@@H](Cc1ccccc1)C(=O)N[C@@H]1C(=O)N2CCO[C@H]12)OCc1ccccc1`, the IC50 (commonly the concentration at which inhibition is half-maximal) in assay [1] was found to be 1.76 µM; in assay [2] it was 0.43 µM; in assay [3], 1.63 µM; in assay [4] it was 0.085 µM.

Turning to `C[C@H](NC(=O)OCc1ccccc1)C(=O)N[C@@H]1C(=O)N2CCO[C@H]12`, the IC50 is above 50 µM in assay [1], above 2.5 µM in assay [2], above 2.5 µM in assay [3] and 38 µM in assay [4].

With `O=C(N[C@H](C(=O)N[C@@H]1C(=O)N2CCO[C@H]12)c1ccccc1)OCc1ccccc1`, the IC50 was above 50 µM in assay [1] and 1.83 µM in assay [4].

Take `O=C(N[C@@H](Cc1ccccc1)C(=O)N[C@@H]1C(=O)N2CCO[C@@H]12)OCc1ccccc1`: the IC50 was determined as 12.2 µM in assay [1], 0.077 µM in assay [2], 0.005 µM in assay [3] and 0.004 µM in assay [4].

Regarding `CC(C)[C@H](NC(=O)OCc1ccccc1)C(=O)N[C@@H]1C(=O)N2CCO[C@H]12`, the IC50 in assay [1] is 30 µM; in assay [2], 0.26 µM; in assay [3], 0.1 µM; in assay [4] it was 0.6 µM.
